Source: ChEMBL document CHEMBL1131016, “Carbocyclic analogues of the potent cytidine deaminase inhibitor 1-(beta-D-ribofuranosyl)-1,2-dihydropyrimidin-2-one (zebularine)” (J Med Chem, 1998)
Calls of active or inactive are those of the source. No cut-off for these calls is given here.

Tests used:
Cytidine deaminase [1] = molecular target: T1, Cytidine deaminase (Homo sapiens, UniProt P32320); test: Compound was tested for its binding affinity against human cytidine deaminase;16-fold less potent than that of zebularine (16.5 uM)
Cytidine deaminase [2] = molecular target: T1, Cytidine deaminase; test: Inhibitory concentration of mouse or human Cytidine deaminase; No inhibition

T1 sequence (P32320 whole entry): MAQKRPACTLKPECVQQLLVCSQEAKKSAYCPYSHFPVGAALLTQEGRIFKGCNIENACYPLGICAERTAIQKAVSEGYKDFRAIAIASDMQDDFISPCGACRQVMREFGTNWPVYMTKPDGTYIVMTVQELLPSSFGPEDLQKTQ

fold less potent than zebularine (Cytidine deaminase [1]) | inhibition (Cytidine deaminase [2]) | SMILES
16 |  | O=c1ncccn1C1CC(CO)[C@@H](O)[C@H]1O (some centres not stated)
 | inactive | O=c1ncccn1[C@H]1[C@H](O)[C@H](O)C2(CO)C[C@H]12 (single isomer, unassigned)
